Reference: patent US20240376068A1, “SIGMA LIGAND COMPOUNDS AND USES THEREOF” (Minerva Neurosciences, Inc., priority 2020, published 2024)
Where two headings read alike, the source gives them in different places.

Key:
sigma 1 (h) = sigma 1 (h) (Homo sapiens (Human), UniProt Q99720); test: Sigma-1 binding assay; conditions: [3H](+)pentazocine, Jurkat cells; read-out: Sigma-1 Ki
Experimental: (§1) Assays for determining Sigma-1 and Sigma-2 binding values were performed according to Ganapathy, M. E. et al. (1999), J. Pharmacol. Exp. Ther., 289:251-260.

Sigma 2 (h) = Sigma 2 (h) (Homo sapiens (Human), UniProt Q5BJF2); test: Sigma-2 binding assay
Chain of Sigma 2 (h) (Q5BJF2 whole entry): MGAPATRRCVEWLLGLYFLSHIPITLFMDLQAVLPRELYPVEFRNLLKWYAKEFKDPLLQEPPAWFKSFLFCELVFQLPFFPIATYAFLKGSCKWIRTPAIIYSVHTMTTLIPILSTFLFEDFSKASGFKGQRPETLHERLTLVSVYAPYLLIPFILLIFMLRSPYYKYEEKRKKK
Experimental: as §1

α1a (h) [1] = target: T1, α1a (h) (Homo sapiens (Human), UniProt P35348); test: α1A adrenergic agonist effect assay; assay type: cell-based; conditions: α1A(h) agonist effect, 1 μM; read-out: % stimulation relative to control (1 μM)
T1 sequence (P35348 whole entry): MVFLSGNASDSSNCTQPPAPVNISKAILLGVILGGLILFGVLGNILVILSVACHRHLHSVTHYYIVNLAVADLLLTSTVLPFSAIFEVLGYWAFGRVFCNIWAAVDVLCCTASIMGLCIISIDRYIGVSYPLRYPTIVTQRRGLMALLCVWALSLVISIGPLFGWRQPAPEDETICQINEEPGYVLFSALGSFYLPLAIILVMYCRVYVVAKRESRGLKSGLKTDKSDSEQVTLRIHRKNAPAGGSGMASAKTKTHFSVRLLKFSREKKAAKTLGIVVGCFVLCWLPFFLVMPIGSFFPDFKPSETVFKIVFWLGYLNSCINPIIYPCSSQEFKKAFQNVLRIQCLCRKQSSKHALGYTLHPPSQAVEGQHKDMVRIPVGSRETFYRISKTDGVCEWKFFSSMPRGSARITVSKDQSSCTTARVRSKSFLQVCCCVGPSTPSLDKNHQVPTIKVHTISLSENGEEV
Experimental: Assays for determining the agonist effect on α1A (h) were performed according to the procedure described in Example 21, and the results are represented in Table D below.

α1a (h) [2] = target: T1, α1a (h); test: α1A adrenergic antagonist effect assay; assay type: cell-based; conditions: for inhibition at 1 µM: α1A(h) antagonist effect, read-out: % inhibition of control values (1 μM)
Experimental: Assays for determining the antagonist effect on α1A (h) were performed according to the procedure described in Example 21, and the results are represented in Table E below. […] No antagonist effect is observed for the other compounds.

dopamine D2S receptor = dopamine D2S receptor (Homo sapiens (Human), UniProt P14416); test: Dopamine D2S receptor binding assay (Eurofins Cerep item 1322); conditions: [3H]7-OH-DPAT, read-out: % inhibition of control specific binding (1 μM)
Chain of dopamine D2S receptor (P14416 other isoform, or with tags, fused parts or gaps): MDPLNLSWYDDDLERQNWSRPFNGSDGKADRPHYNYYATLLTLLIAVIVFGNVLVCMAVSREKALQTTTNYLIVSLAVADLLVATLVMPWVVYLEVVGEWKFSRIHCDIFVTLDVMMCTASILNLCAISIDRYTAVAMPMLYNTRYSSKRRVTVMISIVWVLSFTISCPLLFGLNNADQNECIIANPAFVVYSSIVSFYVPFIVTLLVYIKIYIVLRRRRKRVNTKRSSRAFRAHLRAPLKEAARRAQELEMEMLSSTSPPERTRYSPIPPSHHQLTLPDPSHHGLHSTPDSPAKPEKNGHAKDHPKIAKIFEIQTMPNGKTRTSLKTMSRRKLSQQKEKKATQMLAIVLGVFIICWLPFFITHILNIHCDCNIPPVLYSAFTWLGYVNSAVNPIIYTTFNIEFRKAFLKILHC
Experimental: Assays for determining dopamine D2S receptor binding values were performed according to Eurofins Cerep protocol item 1322 and the results are represented in Table C below. The parameters used for the assay are described below. […] Common antipsychotics, in contrast, block dopamine receptors (Keefe, et al., J Clin Psychiatry. 2018; 79 (3): 17m11753).

5HT2A = 5HT2A (Homo sapiens (Human), UniProt P28223); test: 5HT2A agonist effect assay; assay type: cell-based; conditions: for activation at 0.1 µM: 100 nM, read-out: % stimulation relative to control (100 nM); for activation at 1 µM: read-out: % stimulation relative to control (1 μM)
Experimental: Assays for determining the agonist effect on 5HT2A were performed according to the procedure described in Example 21, and the results are represented in Table F below. The compounds in Table F have no agonist effect on 5HT2A at 1 μM and 100 nM.

hERG = hERG (Homo sapiens (Human), UniProt Q12809); test: hERG inhibition assay
Chain of hERG (Q12809 whole entry): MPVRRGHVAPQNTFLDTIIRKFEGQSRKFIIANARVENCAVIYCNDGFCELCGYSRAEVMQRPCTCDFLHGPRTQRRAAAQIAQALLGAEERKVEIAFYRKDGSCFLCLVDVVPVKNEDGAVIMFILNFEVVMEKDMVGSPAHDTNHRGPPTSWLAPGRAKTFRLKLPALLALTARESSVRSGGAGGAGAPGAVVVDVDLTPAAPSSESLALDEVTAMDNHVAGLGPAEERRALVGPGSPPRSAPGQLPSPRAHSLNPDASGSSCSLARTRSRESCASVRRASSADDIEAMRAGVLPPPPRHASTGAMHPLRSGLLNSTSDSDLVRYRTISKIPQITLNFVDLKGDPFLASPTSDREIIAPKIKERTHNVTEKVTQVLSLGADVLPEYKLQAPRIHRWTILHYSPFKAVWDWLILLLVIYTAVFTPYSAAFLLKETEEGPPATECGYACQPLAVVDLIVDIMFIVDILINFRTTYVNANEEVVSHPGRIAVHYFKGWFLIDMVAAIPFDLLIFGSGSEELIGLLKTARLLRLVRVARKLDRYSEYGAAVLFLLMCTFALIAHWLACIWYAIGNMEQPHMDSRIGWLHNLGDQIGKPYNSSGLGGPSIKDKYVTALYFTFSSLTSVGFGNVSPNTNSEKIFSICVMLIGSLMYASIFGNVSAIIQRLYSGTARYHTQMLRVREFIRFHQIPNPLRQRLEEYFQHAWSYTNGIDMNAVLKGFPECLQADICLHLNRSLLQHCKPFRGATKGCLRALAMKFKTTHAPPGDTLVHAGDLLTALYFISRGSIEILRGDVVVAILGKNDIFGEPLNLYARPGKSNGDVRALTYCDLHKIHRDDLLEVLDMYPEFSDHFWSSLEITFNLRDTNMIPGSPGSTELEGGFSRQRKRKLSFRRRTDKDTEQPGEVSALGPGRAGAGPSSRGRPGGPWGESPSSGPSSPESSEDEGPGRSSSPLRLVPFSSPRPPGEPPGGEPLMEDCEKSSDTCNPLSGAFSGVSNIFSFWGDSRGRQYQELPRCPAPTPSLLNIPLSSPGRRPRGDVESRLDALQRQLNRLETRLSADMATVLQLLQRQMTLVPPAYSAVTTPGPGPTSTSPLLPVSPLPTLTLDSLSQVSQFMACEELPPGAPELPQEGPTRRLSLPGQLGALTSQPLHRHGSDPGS

[3] = [3H]DTG (+1 μM (+)pentazocine), Jurkat cells, read-out: Sigma-2 Ki

Chain of sigma 1 (h) (Q99720 whole entry): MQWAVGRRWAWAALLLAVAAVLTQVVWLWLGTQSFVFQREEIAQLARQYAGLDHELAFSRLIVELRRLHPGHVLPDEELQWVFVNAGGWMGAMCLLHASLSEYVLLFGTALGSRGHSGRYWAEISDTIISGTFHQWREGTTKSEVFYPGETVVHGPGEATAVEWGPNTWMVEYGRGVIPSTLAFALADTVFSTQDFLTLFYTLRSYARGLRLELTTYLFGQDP

SMILES	Ki (sigma 1 (h))	Ki (Sigma 2 (h); [3])	Ki (Sigma 2 (h))	activation at 1 µM (α1a (h) [1])	inhibition at 1 µM (α1a (h) [2])	inhibition at 1 µM (dopamine D2S receptor)	activation at 0.1 µM (5HT2A)	activation at 1 µM (5HT2A)	IC50 (hERG)	antagonist effect on α1A (h) (in words) (α1a (h) [2])
CN1CCN(c2ccc3c(c2)CN(C(=O)OCc2ccccc2)CC3(C)C)CC1 [Compound 1, benzyl 4,4-dimethyl-7-(4-methylpiperazin-1-yl)-3,4-dihydroisoquinoline-2(1H)-carboxylate]	100 to 500 nM	100 to 500 nM	–	–	–	–	–	–	–	–
COC(=O)CCN1CCN(c2ccc3c(c2)CN(C(=O)OCc2ccccc2)CC3(C)C)CC1 [Compound 3, benzyl 7-(4-(3-methoxy-3-oxopropyl)piperazin-1-yl)-4,4-dimethyl-3,4-dihydroisoquinoline-2(1H)-carboxylate]	100 to 500 nM	5 to 50 nM	–	–	–	–	–	–	–	–
CC1(C)CN(C2CCCC2)Cc2cc(-c3ccc(C(F)(F)F)cc3)ccc21 [Compound 4, 2-cyclopentyl-4,4-dimethyl-7-(4-(trifluoromethyl)phenyl)-1,2,3,4-tetrahydroisoquinoline]	> 500 nM	100 to 500 nM	–	–	–	–	–	–	–	–
CC1(C)CN(CCCO)Cc2cc(-c3ccc(C(F)(F)F)cc3)ccc21 [Compound 5, 3-(4,4-dimethyl-7-(4-(trifluoromethyl)phenyl)-3,4-dihydroisoquinolin-2(1H)-yl)propan-1-ol]	100 to 500 nM	100 to 500 nM	–	–	–	–	–	–	–	–
CCCN1Cc2cc(-c3ccc(C(F)(F)F)cc3)ccc2C(C)(C)C1 [Compound 6, 4,4-dimethyl-2-propyl-7-(4-(trifluoromethyl)phenyl)-1,2,3,4-tetrahydroisoquinoline]	> 500 nM	> 500 nM	–	–	–	–	–	–	–	–
CN1CCN(c2ccc3c(c2)CN(C(=O)OCc2ccccc2)CCC3(C)C)CC1 [Compound 7, benzyl 5,5-dimethyl-8-(4-methylpiperazin-1-yl)-1,3,4,5-tetrahydro-2H-benzo[c]azepine-2-carboxylate]	5 to 50 nM	100 to 500 nM	–	–	–	–	–	–	–	–
CCCN1CCN(c2ccc3c(c2)CN(C(=O)OCc2ccccc2)CCC3(C)C)CC1 [Compound 8, benzyl 5,5-dimethyl-8-(4-propylpiperazin-1-yl)-1,3,4,5-tetrahydro-2H-benzo[c]azepine-2-carboxylate]	0.1 to 5 nM	5 to 50 nM	–	–	–	–	–	–	–	–
COC(=O)CCN1CCN(c2ccc3c(c2)CN(C(=O)OCc2ccccc2)CCC3(C)C)CC1 [Compound 9, benzyl 8-(4-(3-methoxy-3-oxopropyl)piperazin-1-yl)-5,5-dimethyl-1,3,4,5-tetrahydro-2H-benzo[c]azepine-2-carboxylate]	5 to 50 nM	5 to 50 nM	–	–	–	–	–	–	–	–
CC1(C)CCN(CCCO)Cc2cc(-c3ccc(C(F)(F)F)cc3)ccc21 [Compound 11, 3-(5,5-dimethyl-8-(4-(trifluoromethyl)phenyl)-1,3,4,5-tetrahydro-2H-benzo[c]azepin-2-yl)propan-1-ol]	> 500 nM	100 to 500 nM	–	–	–	–	–	–	–	–
CCCN1CCC(C)(C)c2ccc(-c3ccc(C(F)(F)F)cc3)cc2C1 [Compound 12, 5,5-dimethyl-2-propyl-8-(4-(trifluoromethyl)phenyl)-2,3,4,5-tetrahydro-1H-benzo[c]azepine]	> 500 nM	50 to 100 nM	–	–	–	–	–	–	–	–
CC1(C)CCN(C2CCCCC2)Cc2cc(-c3ccc(C(F)(F)F)cc3)ccc21 [Compound 32, 2-cyclohexyl-5,5-dimethyl-8-(4-(trifluoromethyl)phenyl)-2,3,4,5-tetrahydro-1H-benzo[c]azepine]	–	–	50 to 100 nM	0%	25%	8%	1%	2%	> 3000 nM	–
CC1(C)CN(S(=O)(=O)c2cccc(Cl)c2)Cc2cc(N3CCN(C4CCCC4)CC3)ccc21 [Compound 33, 2-((3-chlorophenyl)sulfonyl)-7-(4-cyclopentylpiperazin-1-yl)-4,4-dimethyl-1,2,3,4-tetrahydroisoquinoline]	0.1 to 5 nM	0.1 to 5 nM	–	-1%	9%	13%	0%	-1%	> 3000 nM	–
CC1(C)CN(C(=O)c2cc(F)cc(Cl)c2)Cc2cc(N3CCN(C4CCCC4)CC3)ccc21 [Compound 38, (3-chloro-5-fluorophenyl)(7-(4-cyclopentylpiperazin-1-yl)-4,4-dimethyl-3,4-dihydroisoquinolin-2(1H)-yl)methanone]	0.1 to 5 nM	0.1 to 5 nM	–	0%	51%	1%	0%	-1%	2040 nM	small antagonist effect
CC1(C)CN(C(=O)OC2CCCCC2)Cc2cc(N3CCN(C4CCCC4)CC3)ccc21 [Compound 43, cyclohexyl 7-(4-cyclopentylpiperazin-1-yl)-4,4-dimethyl-3,4-dihydroisoquinoline-2(1H)-carboxylate]	0.1 to 5 nM	0.1 to 5 nM	–	0%	15%	11%	-4%	0%	2770 nM	–
CC(C)OC(=O)N1Cc2cc(N3CCN(C4CCCC4)CC3)ccc2C(C)(C)C1 [Compound 45, isopropyl 7-(4-cyclopentylpiperazin-1-yl)-4,4-dimethyl-3,4-dihydroisoquinoline-2(1H)-carboxylate]	0.1 to 5 nM	5 to 50 nM	–	0%	19%	-5%	-4%	-1%	> 3000 nM	–
CC1(C)CCN(C(=O)C2CCCC2)Cc2cc(N3CCN(C4CCCC4)CC3)ccc21 [Compound 73, cyclopentyl(8-(4-cyclopentylpiperazin-1-yl)-5,5-dimethyl-1,3,4,5-tetrahydro-2H-benzo[c]azepin-2-yl)methanone]	0.1 to 5 nM	5 to 50 nM	–	0%	31%	6%	2%	0%	2600 nM	–
CC1(C)CCN(C(=O)c2cccc3c2OCO3)Cc2cc(N3CCC(N4CCOCC4)CC3)ccc21 [Compound 84, benzo[d][1,3]dioxol-4-yl(5,5-dimethyl-8-(4-morpholinopiperidin-1-yl)-1,3,4,5-tetrahydro-2H-benzo[c]azepin-2-yl)methanone]	5 to 50 nM	–	–	0%	19%	-1%	-2%	-2%	> 3000 nM	–
CC1(C)CCN(C(=O)C2CCCC2)Cc2cc(N3CCC(N4CCOCC4)CC3)ccc21 [Compound 85, cyclopentyl(5,5-dimethyl-8-(4-morpholinopiperidin-1-yl)-1,3,4,5-tetrahydro-2H-benzo[c]azepin-2-yl)methanone]	5 to 50 nM	–	–	1%	10%	-3%	-2%	0%	> 3000 nM	–
CC1(C)CCN(C(=O)C2CCCCC2)Cc2cc(N3CCC(N4CCOCC4)CC3)ccc21 [Compound 86, cyclohexyl(5,5-dimethyl-8-(4-morpholinopiperidin-1-yl)-1,3,4,5-tetrahydro-2H-benzo[c]azepin-2-yl)methanone]	0.1 to 5 nM	–	–	0%	-3%	2%	2%	1%	> 3000 nM	–
Cc1cc(-c2ccc3c(c2)CN(CCC(=O)N2CCc4ccccc4C2)CCC3(C)C)cc(C)n1 [Compound 111, 1-(3,4-dihydroisoquinolin-2(1H)-yl)-3-(8-(2,6-dimethylpyridin-4-yl)-5,5-dimethyl-1,3,4,5-tetrahydro-2H-benzo[c]azepin-2-yl)propan-1-one]	–	50 to 100 nM	–	0%	57%	37%	-1%	-2%	2220 nM	small antagonist effect
Cc1cc(-c2ccc3c(c2)CN(CCC(=O)N2CCC(C)CC2)CCC3(C)C)cc(C)n1 [Compound 131, 3-(8-(2,6-dimethylpyridin-4-yl)-5,5-dimethyl-1,3,4,5-tetrahydro-2H-benzo[c]azepin-2-yl)-1-(4-methylpiperidin-1-yl)propan-1-one]	–	–	50 to 100 nM	-1%	31%	21%	1%	-1%	> 3000 nM	–
